Assay results from patent publication US12398107B2, “Fungicidal nitroanilino substituted pyrazoles” (FMC Corporation, priority 2018, dated 2025).

Legend:
Type in all cases: in vivo
[1] = test system: Botrytis cinerea; test: Test E: tomato Botrytis, preventive spray on tomato seedlings; settings: 100 = 100% disease control, 0 = no control; for pest or weed control at 50 ppm / Test E disease control rating (tomato Botrytis): 50 ppm
In short: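 Tomato seedlings sprayed to run-off with compound (ppm) in acetone/water with 250 ppm PEG400, then inoculated next day with B. cinerea spores. Held 48 h at 20 °C in saturated atmosphere, then 3 days at 24 °C. Visual rating 0–100% disease control relative to untreated controls.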

[2] = test system: Puccinia recondita f. sp. tritici; test: Test B: wheat leaf rust, preventive spray on wheat seedlings; settings: 100 = 100% disease control, 0 = no control relative to controls; for pest or weed control at 50 ppm / Test B disease control rating (wheat leaf rust): 50 ppm
In short: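 Compounds in acetone/water (50/50) with 250 ppm PEG400, sprayed to run-off on wheat seedlings at stated ppm; inoculated next day with P. recondita spores. Held 24 h saturated at 20° C., then 7 days in growth chamber at 20° C.; rating 0–100 = % disease control vs controls.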

[3] = test system: Alternaria solani; test: Test F: tomato early blight, preventive spray on tomato seedlings; settings: 100 = 100% disease control, 0 = no control; for pest or weed control at 50 ppm / Test F disease control rating (tomato early blight): 50 ppm
In short: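 Compounds in acetone/water (50/50) with 250 ppm PEG400, dosed in ppm, sprayed to run-off on tomato seedlings; next day inoculated with A. solani spores. Held 48 h saturated at 27° C, then 3 days at 20° C; visual rating 0–100% disease control relative to controls.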

[4] = test system: Blumeria graminis f. sp. tritici; test: Test C: wheat powdery mildew, preventive spray on wheat seedlings; settings: rated after 8 days, 100 = 100% disease control, 0 = no control; for pest or weed control at 50 ppm / Test C disease control rating (wheat powdery mildew): 50 ppm
In short: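 Compound dissolved in acetone (3% of final volume), then suspended in 50/50 acetone/water with 250 ppm PEG400 and sprayed to run-off on wheat seedlings. Inoculated next day with B. graminis f. sp. tritici spore dust, kept 8 days at 20° C; visual rating, 100 = full control, 0 = none, relative to controls.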

[5] = test system: Septoria tritici; test: Test A: wheat leaf blotch, preventive spray on wheat seedlings; settings: 100 = 100% disease control, 0 = no control relative to controls; for pest or weed control at 50 ppm / Test A disease control rating (wheat leaf blotch): 50 ppm
In short: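 Compounds were suspended in acetone/water (50/50) with 250 ppm PEG400 and sprayed to run-off on wheat seedlings. The next day the seedlings were inoculated with Septoria tritici spores, held 48 h at 24 °C in saturated humidity, then 17 days at 20 °C. Disease control was rated 0–100 relative to controls.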

[6] = test system: Phakopsora pachyrhizi; test: Test D: Asian soybean rust, preventive spray on soybean seedlings; settings: 100 = 100% disease control, 0 = no control; for pest or weed control at 50 ppm / Test D disease control rating (Asian soybean rust): 50 ppm
In short: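 Soybean seedlings sprayed to run-off with compound suspension (ppm, in 50/50 acetone/water with 250 ppm PEG400), inoculated next day with P. pachyrhizi spores, held 24 h saturated at 22°C then 8 days at 22°C. Visual rating 0-100% disease control relative to controls.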

[7] = Botrytis cinerea, read-out: Test E disease control rating (tomato Botrytis)
[8] = read-out: Test B disease control rating (wheat leaf rust)
[9] = Alternaria solani, read-out: Test F disease control rating (tomato early blight)
[10] = Blumeria graminis, 192 h, read-out: Test C disease control rating (wheat powdery mildew)
[11] = Zymoseptoria tritici, read-out: Test A disease control rating (wheat leaf blotch)
[12] = Phakopsora pachyrhizi, read-out: Test D disease control rating (Asian soybean rust)

Structure (SMILES)	pest or weed control at 10 ppm ([1]; Botrytis cinerea, 10 ppm, read-out: Test E disease control rating (tomato Botrytis)) [%]	pest or weed control at 50 ppm [1, 7] [%]	pest or weed control at 10 ppm ([2]; 10 ppm, read-out: Test B disease control rating (wheat leaf rust)) [%]	pest or weed control at 50 ppm [2, 8] [%]	pest or weed control at 10 ppm ([3]; Alternaria solani, 10 ppm, read-out: Test F disease control rating (tomato early blight)) [%]	pest or weed control at 50 ppm [3, 9] [%]	pest or weed control at 10 ppm ([4]; Blumeria graminis, 192 h, 10 ppm, read-out: Test C disease control rating (wheat powdery mildew)) [%]	pest or weed control at 50 ppm [4, 10] [%]	pest or weed control at 10 ppm ([5]; Zymoseptoria tritici, 10 ppm, read-out: Test A disease control rating (wheat leaf blotch)) [%]	pest or weed control at 50 ppm [5, 11] [%]	pest or weed control at 10 ppm ([6]; Phakopsora pachyrhizi, 10 ppm, read-out: Test D disease control rating (Asian soybean rust)) [%]	pest or weed control at 50 ppm [6, 12] [%]	Test E disease control rating (tomato Botrytis) [1] [%]	Test B disease control rating (wheat leaf rust) [2] [%]	Test F disease control rating (tomato early blight) [3] [%]	Test C disease control rating (wheat powdery mildew) [4] [%]	Test A disease control rating (wheat leaf blotch) [5] [%]	Test D disease control rating (Asian soybean rust) [6] [%]
Cc1nn(C)c(Nc2c(F)cccc2[N+](=O)[O-])c1-c1ccc(F)cc1Br [Compound 60, 4-(2-bromo-4-fluorophenyl)-N-(2-fluoro-6-nitrophenyl)-1,3-dimethyl-1H-pyrazol-5-amine]	99	99	100	100	75	99	85	100	99	100	0	97						
Cc1nn(C)c(Nc2c(F)cc(F)cc2[N+](=O)[O-])c1-c1ccc(F)cc1Cl [Compound 109]													100	100	99	100	100	93
Cc1nn(C)c(Nc2c(Br)cccc2[N+](=O)[O-])c1-c1ccc(C#N)cc1Cl [Compound 125]													99	96	9	0	100	0
Cc1nn(C)c(Nc2c(Cl)cc(Cl)cc2[N+](=O)[O-])c1-c1ccc(Cl)cc1Cl [Compound 146]													0	98	40	0	97	0
Cc1nn(C)c(Nc2c(F)cccc2[N+](=O)[O-])c1-c1c(F)cc(C#N)cc1F [Compound 114]													100	98	99	99	100	73
COc1ccc(-c2c(C)nn(C)c2Nc2c(Cl)cccc2[N+](=O)[O-])c(C)c1 [Compound 35]													0	85	0	0	99	0
COc1cc(F)c(Nc2c(-c3c(F)cccc3F)c(C)nn2C)c([N+](=O)[O-])c1 [Compound 97]													100	100	99	100	100	96
COc1cc(F)c(-c2c(C)nn(C)c2Nc2c(F)cc(Cl)cc2[N+](=O)[O-])c(F)c1 [Compound 86]													96	100	99	98	100	77
Cc1nn(C)c(Nc2c(F)cc(Cl)cc2[N+](=O)[O-])c1-c1ccc(F)cc1F [Compound 102]													99	100	99	100	100	48
Cc1nn(C)c(Nc2ccc(Br)cc2[N+](=O)[O-])c1-c1ccc(F)cc1Cl [Compound 91]													99	88	26	84	99	0
COc1ccc(-c2c(C)nn(C)c2Nc2c(F)cc(Cl)cc2[N+](=O)[O-])c(Cl)c1 [Compound 81]													95	99	99	89	100	0
Cc1nn(C)c(Nc2c(F)cc(Cl)cc2[N+](=O)[O-])c1-c1c(F)cccc1F [Compound 98]													99	97	98	93	100	0
Cc1nn(C)c(Nc2ccc(OC(F)F)cc2[N+](=O)[O-])c1-c1ccc(F)cc1Cl [Compound 28]													99	68	0	69	91	0
COc1ccc(-c2c(C)nn(C)c2Nc2c(C)cccc2[N+](=O)[O-])c(Cl)c1 [Compound 183]													100	99	58	78	100	0
Cc1nn(C)c(N(C)c2c(F)cccc2[N+](=O)[O-])c1-c1ccc(F)cc1Cl [Compound 172]		99		100		40		100		100		0						
